Assay results: US11191806B2, “Polymyxin-based pharmaceutical composition for treating infectious diseases” (priority 2018, dated 2021)
Each block holds one compound with its values, some of them ahead of it. Bridge positions count the residues as written; N and C are the ends. Square brackets hold non-standard residues; d marks the D form. Peptide text beside a SMILES is read from it. * marks the point of attachment. X1 = CC[C@H](C)CCCCC(=O)*; Dab = NCC[C@H](N)C(=O)O

Columns and labels:
[1] = Degree of destruction of kidney tissue: urinary NGAL and NAG (ELISA); type: in vivo, rats
Experimental: The degree of destruction of kidney tissue was determined by the concentration in the urine of acetyl-beta-glucosaminidase (N-acetyl-beta-d-glucosaminidase) (NAG) and neutrophilic gelatinase-associated lipocalin (neutrophil gelatinase-associated lipocalin) (NGAL) (Table 5).
The concentrations of NGAL and NAG in urine were determined using ELISA-text systems on a StatFax303+reader.

[2] = Accumulation of colistin in the kidneys after intravenous injection; type: in vivo; conditions: rats, colistin 0.5 mg/kg, SCDC 2 mg/kg
Experimental: In this experiment was determined, the accumulation of colistin in the kidneys of rats after intravenous injection of Polyfro (colistin, SCDC and liposomal cholecalciferol). Concentrations of colistin (CC), SCDC/cholecalciferol (CCF) were used based on preliminary modeling (the number of binding sites in one molecule, multiplied by their number in one megalin molecule, the molecular weight of megalin and the approximate amount of megalin in one kidney and the weight of the kidney) The result was the required amount of SCDC about 2 mg/kg of weight. For CS, a subtoxic dose was selected (based on the instructions). This is an experiment on the “displacement” of polymyxin from the kidneys with a synergistic combination of SCDC/HCF. As a result, about half of the polymyxin was displaced from the kidneys by SCDC/HCF. All components of CC, SCDC/CCF were determined in the sediment of renal homogenate and supernatant by HPLC. […] The content of colistin in the kidneys (A) and its concentration in terms of the weight of the kidneys (μg/g) (B) are shown in FIG. 1.
All data are statistically significant and differences between groups and controls are significant.

[3] = target: T1, megalin of rat kidney homogenate (Rattus norvegicus, UniProt P98158); assay: Binding of cyanocobalamin derivatives to renal megalin (micromethod in Eppendorf tubes, HPLC of supernatant); conditions: derivative in supernatant after centrifugation determined by HPLC
T1 construct: megalin of rat kidney homogenate; from tissue; host or cells: rat kidney homogenate
T1 sequence (P98158 26-4660): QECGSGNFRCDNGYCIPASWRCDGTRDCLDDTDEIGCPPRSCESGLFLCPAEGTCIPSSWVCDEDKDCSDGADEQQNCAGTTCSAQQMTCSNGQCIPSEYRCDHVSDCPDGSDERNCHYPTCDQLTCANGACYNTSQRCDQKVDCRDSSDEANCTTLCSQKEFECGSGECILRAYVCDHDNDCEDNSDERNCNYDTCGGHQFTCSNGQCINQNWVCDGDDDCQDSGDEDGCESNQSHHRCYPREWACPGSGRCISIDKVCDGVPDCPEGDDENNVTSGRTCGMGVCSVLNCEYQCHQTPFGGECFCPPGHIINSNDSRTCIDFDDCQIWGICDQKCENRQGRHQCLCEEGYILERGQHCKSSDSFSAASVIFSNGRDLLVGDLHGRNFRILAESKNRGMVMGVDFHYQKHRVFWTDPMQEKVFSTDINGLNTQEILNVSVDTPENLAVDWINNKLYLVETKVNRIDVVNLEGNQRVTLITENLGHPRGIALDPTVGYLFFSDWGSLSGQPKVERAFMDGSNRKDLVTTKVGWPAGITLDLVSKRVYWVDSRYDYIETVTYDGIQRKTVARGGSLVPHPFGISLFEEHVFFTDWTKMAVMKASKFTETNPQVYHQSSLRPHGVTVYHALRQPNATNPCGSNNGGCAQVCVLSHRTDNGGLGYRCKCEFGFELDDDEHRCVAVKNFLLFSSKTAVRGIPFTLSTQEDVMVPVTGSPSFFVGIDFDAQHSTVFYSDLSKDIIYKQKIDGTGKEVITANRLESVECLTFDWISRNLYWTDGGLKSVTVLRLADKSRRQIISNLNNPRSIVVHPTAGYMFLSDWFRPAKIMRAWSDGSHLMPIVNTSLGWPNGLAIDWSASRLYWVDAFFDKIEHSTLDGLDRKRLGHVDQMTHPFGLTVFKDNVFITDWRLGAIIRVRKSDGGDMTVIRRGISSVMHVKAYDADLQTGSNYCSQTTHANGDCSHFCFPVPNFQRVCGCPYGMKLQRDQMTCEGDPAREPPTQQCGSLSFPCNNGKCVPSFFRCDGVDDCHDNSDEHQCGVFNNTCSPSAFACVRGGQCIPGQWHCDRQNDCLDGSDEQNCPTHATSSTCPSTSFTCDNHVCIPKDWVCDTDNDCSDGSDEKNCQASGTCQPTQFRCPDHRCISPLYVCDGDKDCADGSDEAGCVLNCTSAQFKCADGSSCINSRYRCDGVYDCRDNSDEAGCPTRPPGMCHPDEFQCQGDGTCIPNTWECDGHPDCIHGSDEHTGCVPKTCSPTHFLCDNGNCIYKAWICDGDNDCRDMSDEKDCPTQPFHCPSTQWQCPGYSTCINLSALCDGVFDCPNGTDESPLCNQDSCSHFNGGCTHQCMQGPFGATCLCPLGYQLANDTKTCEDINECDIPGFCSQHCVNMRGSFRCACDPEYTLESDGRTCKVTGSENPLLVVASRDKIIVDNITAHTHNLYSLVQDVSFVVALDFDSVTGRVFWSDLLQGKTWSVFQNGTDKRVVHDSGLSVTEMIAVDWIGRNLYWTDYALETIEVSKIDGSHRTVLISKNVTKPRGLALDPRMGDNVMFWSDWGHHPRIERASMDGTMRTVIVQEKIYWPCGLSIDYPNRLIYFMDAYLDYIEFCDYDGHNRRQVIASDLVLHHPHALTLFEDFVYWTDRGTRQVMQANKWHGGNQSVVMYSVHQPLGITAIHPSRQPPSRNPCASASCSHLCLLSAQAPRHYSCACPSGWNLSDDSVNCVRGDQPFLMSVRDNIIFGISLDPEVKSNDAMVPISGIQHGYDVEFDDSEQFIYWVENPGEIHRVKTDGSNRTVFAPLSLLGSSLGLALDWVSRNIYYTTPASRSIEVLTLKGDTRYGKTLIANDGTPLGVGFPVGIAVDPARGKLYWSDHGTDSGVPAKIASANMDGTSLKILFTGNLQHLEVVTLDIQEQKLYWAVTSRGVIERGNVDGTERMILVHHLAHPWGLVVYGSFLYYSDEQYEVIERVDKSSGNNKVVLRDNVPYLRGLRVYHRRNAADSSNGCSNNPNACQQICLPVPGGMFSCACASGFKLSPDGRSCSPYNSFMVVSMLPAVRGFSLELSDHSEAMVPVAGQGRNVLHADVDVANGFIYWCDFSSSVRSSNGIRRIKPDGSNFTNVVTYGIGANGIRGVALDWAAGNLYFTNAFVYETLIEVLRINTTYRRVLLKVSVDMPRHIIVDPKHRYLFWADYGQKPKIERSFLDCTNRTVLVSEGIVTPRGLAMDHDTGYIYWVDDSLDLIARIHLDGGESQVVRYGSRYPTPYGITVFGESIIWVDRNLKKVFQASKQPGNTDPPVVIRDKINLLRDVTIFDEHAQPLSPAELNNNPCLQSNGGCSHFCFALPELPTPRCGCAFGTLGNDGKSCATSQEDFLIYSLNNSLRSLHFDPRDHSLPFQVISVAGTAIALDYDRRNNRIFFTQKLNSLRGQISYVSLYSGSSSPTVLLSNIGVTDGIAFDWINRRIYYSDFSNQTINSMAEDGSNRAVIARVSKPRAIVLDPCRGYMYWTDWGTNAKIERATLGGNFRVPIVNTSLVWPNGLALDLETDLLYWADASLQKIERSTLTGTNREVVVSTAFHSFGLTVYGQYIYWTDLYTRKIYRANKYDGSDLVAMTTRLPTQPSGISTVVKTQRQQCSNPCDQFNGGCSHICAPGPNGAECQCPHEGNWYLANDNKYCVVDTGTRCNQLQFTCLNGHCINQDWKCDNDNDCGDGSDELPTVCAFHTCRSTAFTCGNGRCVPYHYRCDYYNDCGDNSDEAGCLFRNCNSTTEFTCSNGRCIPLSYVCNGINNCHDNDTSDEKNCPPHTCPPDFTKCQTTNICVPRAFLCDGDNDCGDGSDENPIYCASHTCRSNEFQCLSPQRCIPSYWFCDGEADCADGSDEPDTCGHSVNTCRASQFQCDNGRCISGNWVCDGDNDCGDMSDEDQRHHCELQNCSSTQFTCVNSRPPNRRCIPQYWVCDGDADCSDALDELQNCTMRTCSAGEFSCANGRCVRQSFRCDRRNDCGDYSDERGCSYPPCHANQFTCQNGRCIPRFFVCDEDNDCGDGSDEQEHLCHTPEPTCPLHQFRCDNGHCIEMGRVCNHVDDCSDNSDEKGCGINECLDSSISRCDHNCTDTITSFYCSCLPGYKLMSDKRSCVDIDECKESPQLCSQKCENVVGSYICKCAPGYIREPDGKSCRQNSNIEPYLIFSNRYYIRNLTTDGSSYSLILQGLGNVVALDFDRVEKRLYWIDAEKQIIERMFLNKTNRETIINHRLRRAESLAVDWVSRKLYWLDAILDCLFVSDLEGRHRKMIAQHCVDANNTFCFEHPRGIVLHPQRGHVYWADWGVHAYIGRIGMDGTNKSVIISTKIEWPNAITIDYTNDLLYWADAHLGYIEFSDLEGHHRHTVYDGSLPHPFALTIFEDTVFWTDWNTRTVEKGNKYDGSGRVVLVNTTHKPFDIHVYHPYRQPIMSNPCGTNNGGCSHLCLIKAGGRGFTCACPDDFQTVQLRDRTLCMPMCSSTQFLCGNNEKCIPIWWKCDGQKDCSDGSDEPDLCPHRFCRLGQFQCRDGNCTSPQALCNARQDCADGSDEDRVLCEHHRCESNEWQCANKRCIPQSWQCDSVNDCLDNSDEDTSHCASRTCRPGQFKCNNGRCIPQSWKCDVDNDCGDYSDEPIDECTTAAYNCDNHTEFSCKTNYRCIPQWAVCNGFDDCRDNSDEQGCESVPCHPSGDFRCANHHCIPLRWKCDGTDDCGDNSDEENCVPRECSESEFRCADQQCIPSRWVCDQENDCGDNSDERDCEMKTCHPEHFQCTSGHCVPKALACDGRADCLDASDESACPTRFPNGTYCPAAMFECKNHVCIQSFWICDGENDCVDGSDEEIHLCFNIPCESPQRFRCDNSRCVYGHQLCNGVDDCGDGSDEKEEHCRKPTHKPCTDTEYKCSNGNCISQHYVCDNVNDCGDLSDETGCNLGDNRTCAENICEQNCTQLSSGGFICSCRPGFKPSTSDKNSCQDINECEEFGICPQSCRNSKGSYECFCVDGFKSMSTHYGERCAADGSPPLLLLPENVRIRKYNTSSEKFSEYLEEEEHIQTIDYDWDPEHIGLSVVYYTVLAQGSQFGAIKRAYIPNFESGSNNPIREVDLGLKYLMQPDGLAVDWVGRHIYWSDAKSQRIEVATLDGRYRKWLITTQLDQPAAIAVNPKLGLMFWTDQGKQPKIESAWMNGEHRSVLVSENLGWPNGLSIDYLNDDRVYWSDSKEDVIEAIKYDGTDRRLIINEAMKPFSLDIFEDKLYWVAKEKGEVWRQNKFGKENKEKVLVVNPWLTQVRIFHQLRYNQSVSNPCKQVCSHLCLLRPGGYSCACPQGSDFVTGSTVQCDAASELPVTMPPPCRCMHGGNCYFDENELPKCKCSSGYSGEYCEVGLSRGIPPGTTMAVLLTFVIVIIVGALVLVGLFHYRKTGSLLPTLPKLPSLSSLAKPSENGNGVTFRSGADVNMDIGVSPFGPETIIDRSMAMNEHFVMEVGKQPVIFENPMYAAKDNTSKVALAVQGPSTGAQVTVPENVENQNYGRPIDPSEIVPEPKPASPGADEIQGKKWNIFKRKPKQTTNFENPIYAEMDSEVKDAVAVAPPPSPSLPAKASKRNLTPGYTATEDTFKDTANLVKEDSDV
Experimental: The test was carried out by a micromethod in Eppendorf tubes on the ability of cyanocobalamin derivatives to bind to megalin: after centrifugation, the bound derivative together with megalin remained in the sediment, and the percentage of the remaining unreacted cyanocobalamin derivative in the supernatant was determined using HPLC on a Milichrom A-02 liquid chromatograph.

[4] = Table 5, rats, i.v. 1 time per day for 10 days, 0.5/15 mg/kg polymyxin/SCDC

Compound: CC[C@H](C)CCCCC(=O)N[C@@H](CCN)C(=O)N[C@H](C(=O)N[C@@H](CCN)C(=O)N[C@H]1CCNC(=O)[C@H]([C@@H](C)O)NC(=O)[C@H](CCN)NC(=O)[C@H](CCN)NC(=O)[C@H](CC(C)C)NC(=O)[C@@H](CC(C)C)NC(=O)[C@H](CCN)NC1=O)[C@@H](C)O [Colistin, colistin] (X1-[Dab]T[Dab][Dab][Dab][dL]L[Dab][Dab]T; lactam 4-C)
Urinary Excretion of NGAL [1, 4]: 775 ± 33 µg/h | Urinary NAG Excretion [1, 4]: 2578 ± 95 µg/h | Urinary Excretion of NGAL ([1]; Table 6, n = 15): 775 ± 33 µg/h | Urinary NAG Excretion ([1]; Table 6, n = 15): 2578 ± 95 µg/h | Accumulation of colistin in the kidneys [2]: 20.5 ± 2.5 µg

% bound derivative [3]: 52%
Compound: cyanocobalamin [derivative 11]

% bound derivative [3]: 7%
Compound: triacetyl-cyanocobalamin [derivative 31]

% bound derivative [3]: 6%
Compound: trisuccinyl-cyanocobalamin [derivative 30]
